Publication PMC9870890 (Nature Communications, 2023)
“And” between values parts separate entries of the source, which are not always exact repeats. Equal entries are not always repeated. Where two headings read alike, the source gives them in different places.

Target: T1, M2R (Homo sapiens, UniProt P08172)
T1 sequence (P08172 1-466): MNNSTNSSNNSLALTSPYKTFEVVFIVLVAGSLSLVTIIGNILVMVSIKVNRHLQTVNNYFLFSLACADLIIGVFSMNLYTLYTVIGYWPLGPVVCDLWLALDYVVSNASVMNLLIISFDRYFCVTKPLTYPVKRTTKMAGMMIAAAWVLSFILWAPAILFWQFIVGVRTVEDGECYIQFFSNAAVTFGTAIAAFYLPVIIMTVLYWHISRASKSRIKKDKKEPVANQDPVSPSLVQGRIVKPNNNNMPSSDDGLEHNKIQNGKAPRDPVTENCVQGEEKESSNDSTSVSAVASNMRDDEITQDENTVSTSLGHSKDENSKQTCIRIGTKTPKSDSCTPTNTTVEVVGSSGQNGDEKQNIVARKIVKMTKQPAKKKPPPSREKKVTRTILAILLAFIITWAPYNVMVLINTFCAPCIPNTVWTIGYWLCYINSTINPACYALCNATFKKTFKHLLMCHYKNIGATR
Experiment: cell-based
Parameters: expressed in transfected cells; host or cells: HEK 293T
Settings: for Emax: HEK-293T
Procedure: Determination of β-arrestin-2 recruitment was performed applying the PathHunter assay (DiscoverX, Birmingham, U.K.) which is based on fragment complementation of β-galactosidase as described. In detail, HEK293T cells were transfected with the flag-tagged M2 receptor carrying the PKA fragment for enzyme complementation and transferred into 384-well micro plates. […] Determination of chemoluminescence was done with a Clariostar plate reader (BMG, Ortenberg, Germany). […] Normalized curves from three to five individual experiments each done in duplicate were analyzed by non-linear regression applying the algorithms in Prism 8.0 (GraphPad, San Diego, CA) to get dose-response curves representing average EC50 and Emax value.

With `C[N+](C)(C)CC#CCOC1=NOCC1` [Ixo, iperoxo] the EC50 was 0.35 ± 0.08 nM, the Emax (read-out: Emax in % of acetylcholin, arrestin recruitment by iperoxo, agonist + 0.1 µM LY) was 168% and the Emax (read-out: Emax in % of acetylcholin, arrestin recruitment by iperoxo, agonist + 3 µM LY) was 172%. It also gave an Emax (read-out: Emax in % of acetylcholin, arrestin recruitment by iperoxo, agonist + 30 µM LY) of 170%, an Emax (read-out: Emax in % of acetylcholin, arrestin recruitment by iperoxo, agonist + 100 µM LY) of 170% and an Emax (read-out: arrestin recruitment as % max effect of acetylcholin, iperoxo log [M] 3-6) of 135%. For the same molecule, the Emax (read-out: arrestin recruitment as % max effect of acetylcholin, iperoxo log [M] 3-7) was 142%, the Emax (read-out: arrestin recruitment as % max effect of acetylcholin, iperoxo log [M] 3-8) was 138% and the Emax (read-out: arrestin recruitment as % max effect of acetylcholin, iperoxo log [M] 3-8 + 1µM LY2119620) was 150%. It also gave an Emax (read-out: arrestin recruitment as % max effect of acetylcholin, iperoxo log [M] 3-8 + 10µM LY2119620) of 154%, an Emax (read-out: arrestin recruitment as % max effect of acetylcholin, iperoxo log [M] 3-8 + 30µM LY2119620) of 168% and an Emax (read-out: arrestin recruitment as % max effect of acetylcholin, iperoxo log [M] 3-8 + 100µM LY2119620) of 160%. The Emax (read-out: arrestin recruitment as % max effect of acetylcholin, iperoxo log [M] 3-9 + 0.1µM LY2119620) was 160%, the Emax (read-out: arrestin recruitment as % max effect of acetylcholin, iperoxo log [M] 3-9 + 3µM LY2119620) was 166% and the Emax (read-out: arrestin recruitment as % max effect of acetylcholin, iperoxo log [M] 3-9 + 30µM LY2119620) was 175%. For the same molecule, the Emax (read-out: arrestin recruitment as % max effect of acetylcholin, iperoxo log [M] 3-9 + 100µM LY2119620) was 159%, the Emax (read-out: arrestin recruitment as % max effect of acetylcholin, iperoxo log [M] 3-10 + 30µM LY2119620) was 141% and the Emax (read-out: arrestin recruitment as % max effect of acetylcholin, iperoxo log [M] 3-10 + 100µM LY2119620) was 125%. It also gave an Emax (read-out: arrestin recruitment as % max effect of acetylcholin, iperoxo log [M] 3-11 + 0.1µM LY2119620) of 19.4%, an Emax (read-out: arrestin recruitment as % max effect of acetylcholin, iperoxo log [M] 3-11 + 1µM LY2119620) of 30.8% and an Emax (read-out: arrestin recruitment as % max effect of acetylcholin, iperoxo log [M] 3-11 + 3µM LY2119620) of 72.1%. The Emax (read-out: arrestin recruitment as % max effect of acetylcholin, iperoxo log [M] 3-11 + 10µM LY2119620) was 77.5%, the Emax (read-out: arrestin recruitment as % max effect of acetylcholin, iperoxo log [M] 3-11 + 100µM LY2119620) was 58.2% and the Emax (read-out: arrestin recruitment as % max effect of acetylcholin, iperoxo log [M] -5) was 152%. It also gave an Emax (read-out: arrestin recruitment as % max effect of acetylcholin, iperoxo log [M] -6 + 0.1µM LY2119620) of 163%, an Emax (read-out: arrestin recruitment as % max effect of acetylcholin, iperoxo log [M] -6 + 1µM LY2119620) of 142% and an Emax (read-out: arrestin recruitment as % max effect of acetylcholin, iperoxo log [M] -6 + 3µM LY2119620) of 170%. It also gave an Emax (read-out: arrestin recruitment as % max effect of acetylcholin, iperoxo log [M] -6 + 10µM LY2119620) of 155%, an Emax (read-out: arrestin recruitment as % max effect of acetylcholin, iperoxo log [M] -6 + 30µM LY2119620) of 180% and an Emax (read-out: arrestin recruitment as % max effect of acetylcholin, iperoxo log [M] -6 + 100µM LY2119620) of 166%. It also gave an Emax (read-out: arrestin recruitment as % max effect of acetylcholin, iperoxo log [M] -7 + 30µM LY2119620) of 168%, an Emax (read-out: arrestin recruitment as % max effect of acetylcholin, iperoxo log [M] -7 + 100µM LY2119620) of 161% and an Emax (read-out: arrestin recruitment as % max effect of acetylcholin, iperoxo log [M] -8 + 0.1µM LY2119620) of 162%. The Emax (read-out: arrestin recruitment as % max effect of acetylcholin, iperoxo log [M] -8 + 3µM LY2119620) was 149%, the Emax (read-out: arrestin recruitment as % max effect of acetylcholin, iperoxo log [M] -8 + 30µM LY2119620) was 176% and the Emax (read-out: arrestin recruitment as % max effect of acetylcholin, iperoxo log [M] -8 + 100µM LY2119620) was 160%. For the same molecule, the Emax (read-out: arrestin recruitment as % max effect of acetylcholin, iperoxo log [M] -10 + 3µM LY2119620) was 105%, the Emax (read-out: arrestin recruitment as % max effect of acetylcholin, iperoxo log [M] -10 + 100µM LY2119620) was 89% and the Emax (read-out: arrestin recruitment as % max effect of acetylcholin, iperoxo log [M] -11 + 3µM LY2119620) was 44.6%. The Emax (read-out: arrestin recruitment as % max effect of acetylcholin, iperoxo log [M] -11 + 30µM LY2119620) was 75.7%, the Emax (read-out: arrestin recruitment as % max effect of acetylcholin, iperoxo log [M] -11 + 100µM LY2119620) was 58.6% and the Emax (read-out: arrestin recruitment as % max effect of acetylcholin, iperoxo log [M] -12 + 3µM LY2119620) was 37.8%. The Emax (read-out: arrestin recruitment as % max effect of acetylcholin, iperoxo log [M] -12 + 100µM LY2119620) was 62.6%, the Emax (read-out: arrestin recruitment as % max effect of acetylcholin, iperoxo log [M] -13 + 3µM LY2119620) was 33% and the Emax (read-out: arrestin recruitment as % max effect of acetylcholin, iperoxo log [M] -13 + 10µM LY2119620) was 26.7%. The Emax (read-out: arrestin recruitment as % max effect of acetylcholin, iperoxo log [M] -13 + 30µM LY2119620) was 59.3%, the Emax (read-out: arrestin recruitment as % max effect of acetylcholin, iperoxo log [M] -13 + 100µM LY2119620) was 44.2% and the Emax (read-out: enhancement of efficacy (Emax) in β-arrestin recruitment, presence of high concentration of LY2119620) was roughly 15%. The “arrestin recruitment as % max effect of acetylcholin” value (shortened to “arrestin recruitment as % max effect”) (iperoxo log [M] 3-9) was 135.8% and 120.8% and 147.9% and 130.1%, the “arrestin recruitment as % max effect” value (iperoxo log [M] 3-9 + 0.1µM LY2119620) was 156.9% and the “arrestin recruitment as % max effect” value (iperoxo log [M] 3-9 + 1µM LY2119620) was 109.3% and 162.2% and 161.4% and 201.0%. The “arrestin recruitment as % max effect” value (iperoxo log [M] 3-9 + 10µM LY2119620) was 130.3% and 161.0% and 169.5%, the “arrestin recruitment as % max effect” value (iperoxo log [M] 3-9 + 30µM LY2119620) was 168.8% and 163.9% and the “arrestin recruitment as % max effect” value (iperoxo log [M] 3-10 + 0.1µM LY2119620) was 82.7% and 92.1% and 124.5%. For the same molecule, the “arrestin recruitment as % max effect” value (iperoxo log [M] 3-10 + 3µM LY2119620) was 147.1% and 158.1% and 137.1% and 138.5%, the “arrestin recruitment as % max effect” value (iperoxo log [M] 3-10 + 10µM LY2119620) was 103.3% and 152.4% and 152.5% and 133.9% and the “arrestin recruitment as % max effect” value (iperoxo log [M] 3-10 + 30µM LY2119620) was 133.2% and 130.6% and 122.9%. The “arrestin recruitment as % max effect” value (iperoxo log [M] 3-10 + 100µM LY2119620) was 127.5% and 129.1% and 112.5%, the “arrestin recruitment as % max effect” value (iperoxo log [M] -7 + 0.1µM LY2119620) was 171.1% and 186.3% and 156.7% and 161.0% and the “arrestin recruitment as % max effect” value (iperoxo log [M] -7 + 1µM LY2119620) was 129.3% and 176.9% and 172.6%. The “arrestin recruitment as % max effect” value (iperoxo log [M] -7 + 3µM LY2119620) was 210.7% and 168.6% and 182.6% and 172.8%, the “arrestin recruitment as % max effect” value (iperoxo log [M] -7 + 10µM LY2119620) was 131.2% and 159.6% and 162.7% and 198.6% and the “arrestin recruitment as % max effect” value (iperoxo log [M] -7 + 30µM LY2119620) was 161.3% and 181.0% and 168.2%. For the same molecule, the “arrestin recruitment as % max effect” value (iperoxo log [M] -7 + 100µM LY2119620) was 157.1% and 172.7% and 165.6%, the “arrestin recruitment as % max effect” value (iperoxo log [M] -8 + 0.1µM LY2119620) was 168.3% and 154.3% and 173.5% and the “arrestin recruitment as % max effect” value (iperoxo log [M] -8 + 1µM LY2119620) was 124.1% and 172.3% and 160.8% and 152.0%. For the same molecule, the “arrestin recruitment as % max effect” value (iperoxo log [M] -8 + 3µM LY2119620) was 158.0% and 166.2% and 162.4%, the “arrestin recruitment as % max effect” value (iperoxo log [M] -8 + 10µM LY2119620) was 139.2% and 163.1% and 168.9% and 181.1% and the “arrestin recruitment as % max effect” value (iperoxo log [M] -8 + 30µM LY2119620) was 176.5% and 174.9% and 157.1%. For the same molecule, the “arrestin recruitment as % max effect” value (iperoxo log [M] -8 + 100µM LY2119620) was 165.6% and 153.6% and 149.1%, the “arrestin recruitment as % max effect” value (iperoxo log [M] -9 + 0.1µM LY2119620) was 127.2% and 148.3% and 150.9% and 143.2% and the “arrestin recruitment as % max effect” value (iperoxo log [M] -9 + 3µM LY2119620) was 137.5% and 153.6% and 172.9% and 151.5%. The “arrestin recruitment as % max effect” value (iperoxo log [M] -9 + 10µM LY2119620) was 118.8% and 155.2% and 169.6% and 149.0%, the “arrestin recruitment as % max effect” value (iperoxo log [M] -9 + 30µM LY2119620) was 161.0% and 151.6% and 144.8% and 137.0% and the “arrestin recruitment as % max effect” value (iperoxo log [M] -9 + 100µM LY2119620) was 158.6% and 154.0% and 158.3% and 124.7%. For the same molecule, the “arrestin recruitment as % max effect” value (iperoxo log [M] -10 + 10µM LY2119620) was 79.6% and 137.1%, the “arrestin recruitment as % max effect” value (iperoxo log [M] -10 + 30µM LY2119620) was 112.5% and 108.5% and 109.4% and the “arrestin recruitment as % max effect” value (iperoxo log [M] -10 + 100µM LY2119620) was 85.8% and 82.4% and 75.4%.
